Assay results as given in US8017589B2, “Avermectin B1 and avermectin B1 monosaccharide derivatives having an alkoxymethyl substituent in the 4″-or 4′-position” (Syngenta Crop Protection LLC, priority 2002, dated 2011).

Columns and labels:
Type in all cases: in vivo
Plutella xylostella = experiment: Action against Plutella xylostella caterpillars (spray on young cabbage plants); details: 72 h, 12.5 ppm spray mixture, 10 caterpillars in the first stage, 3 days later, read-out: percentage reduction in population and percentage reduction in feeding damage (% activity)
Description: After the spray-coating has dried, the cabbage plants are populated with 10 caterpillars of Plutella xylostella in the first stage and placed in a plastics container. Evaluation is made 3 days later. The percentage reduction in population and the percentage reduction in feeding damage (% activity) are determined by comparing the number of dead caterpillars and the feeding damage on the treated plants with that on the untreated plants.

Spodoptera littoralis = experiment: Action against Spodoptera littoralis (foliar spray on young soybean plants); details: 72 h, 12.5 ppm spray mixture, 10 caterpillars in the first stage, 3 days later, read-out: percentage reduction in population and percentage reduction in feeding damage (% activity)
Description: 3 days later, the percentage reduction in population and the percentage reduction in feeding damage (% activity) are determined by comparing the number of dead caterpillars and the feeding damage on the treated plants with that on untreated plants.

Tetranychus urticae = experiment: Action against Tetranychus urticae (spray on young bean plants); details: 144 h, 12.5 ppm spray mixture, mixed population, 6 days at 25° C., read-out: percentage reduction in population (% activity)
Description: The plants are incubated for 6 days at 25° C. and subsequently evaluated. The percentage reduction in population (% activity) is determined by comparing the number of dead eggs, larvae and adults on the treated plants with that on untreated plants.

SMILES | inhibition at 12.5 ppm (Plutella xylostella) [%] | inhibition at 12.5 ppm (Spodoptera littoralis) [%] | inhibition at 12.5 ppm (Tetranychus urticae) [%]
CCC(C)[C@H]1O[C@]2(C=C[C@@H]1C)C[C@@H]1C[C@@H](C/C=C(\C)[C@@H](OC3C[C@H](OC)[C@@H](OC4C[C@H](OC)[C@H](OCOCCOC)[C@H](C)O4)[C@H](C)O3)C(C)/C=C/C=C3\CO[C@@H]4[C@H](O)C(C)=C[C@@H](C(=O)O1)[C@]34O)O2 (stereo partly drawn) [Compound 2.8, 4″-epi-O-(2-methoxyethoxymethyl)-Avermectin B1] | > 80 | – | –
CCC(C)[C@H]1O[C@]2(C=C[C@@H]1C)C[C@@H]1C[C@@H](C/C=C(\C)[C@@H](OC3C[C@H](OC)[C@@H](OCOCCN)[C@H](C)O3)C(C)/C=C/C=C3\CO[C@@H]4[C@H](O)C(C)=C[C@@H](C(=O)O1)[C@]34O)O2 (stereo partly drawn) [Compound 3.19] | – | > 80 | > 80
